Reference: patent US20210045385A1, “PYRIDAZINONE-SUBSTITUTED KETOXIMES AS HERBICIDES” (FMC Corporation, priority 2018, published 2021)

Assays:
Format in all cases: in vivo
[1] = tested on: Italian ryegrass (Lolium mutiflorum); assay: Test C preemergence, visual plant response rating
Outline: (§1)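 Visual injury on a 0 (no effect) to 100 (complete control) scale versus untreated controls, scored approximately 10 d after treatment under greenhouse conditions. Treatments used surfactant-containing non-phytotoxic solvent formulations, sprayed onto loam–sand soil preemergence or onto one- to two-leaf plants 2–10 cm tall postemergence.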

[2] = tested on: barnyardgrass (Echinochloa crus-galli); assay: Test C preemergence, visual plant response rating
Outline: as §1

[3] = tested on: foxtail, giant (giant foxtail, Setaria faberi); assay: Test C preemergence, visual plant response rating
Outline: as §1

kochia (Bassia scoparia) [4] = assay: Test C preemergence, visual plant response rating
Outline: as §1

[5] = tested on: pigweed (Amaranthus retroflexus); assay: Test C preemergence, visual plant response rating
Outline: as §1

[6] = tested on: ragweed (common ragweed, Ambrosia artemisiifolia); assay: Test C preemergence, visual plant response rating
Outline: as §1

[7] = tested on: Italian ryegrass (Lolium mutiflorum); assay: Test C postemergence, visual plant response rating
Outline: as §1

[8] = tested on: barnyardgrass (Echinochloa crus-galli); assay: Test C postemergence, visual plant response rating
Outline: as §1

[9] = tested on: blackgrass (Alopecurus myosuroides); assay: Test C postemergence, visual plant response rating
Outline: as §1

corn (Zea mays) = assay: Test C postemergence, visual plant response rating
Outline: as §1

[10] = tested on: foxtail, giant (giant foxtail, Setaria faberi); assay: Test C postemergence, visual plant response rating
Outline: as §1

[11] = tested on: galium (catchweed bedstraw, Galium aparine); assay: Test C postemergence, visual plant response rating
Outline: as §1

kochia (Bassia scoparia) [12] = assay: Test C postemergence, visual plant response rating
Outline: as §1

[13] = tested on: pigweed (Amaranthus retroflexus); assay: Test C postemergence, visual plant response rating
Outline: as §1

[14] = tested on: ragweed (common ragweed, Ambrosia artemisiifolia); assay: Test C postemergence, visual plant response rating
Outline: as §1

[15] = tested on: wheat (Triticum aestivum); assay: Test C postemergence, visual plant response rating
Outline: as §1

[16] = tested on: barnyardgrass (Echinochloa crus-galli); assay: Test D flooded paddy test, visual plant response rating; settings: 250 g ai/ha, scale 0 to 100 (0 no effect, 100 complete control), 13 to 15 d
Outline: (§2)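 Rating is visual, on a 0 (no effect) to 100 (complete control) scale versus controls, taken 13 to 15 d after treatment in a greenhouse. Treatment went into paddy water kept 3 cm above the soil surface, with plants at the 2-leaf stage.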

[17] = tested on: duck salad (Heteranthera limosa); assay: as above; settings: 250 g ai/ha, scale 0 to 100 (0 no effect, 100 complete control), 13 to 15 d
Outline: as §2

rice (Oryza sativa) = assay: as above; settings: 250 g ai/ha, scale 0 to 100 (0 no effect, 100 complete control), 13 to 15 d
Outline: as §2

[18] = tested on: sedge umbrella (small-flower umbrella sedge, Cyperus difformis); assay: as above; settings: 250 g ai/ha, scale 0 to 100 (0 no effect, 100 complete control), 13 to 15 d
Outline: as §2

[19] = Test C, 31 g ai/ha, 0 is no effect, 100 is complete control
[20] = Test C, 125 g ai/ha, 0 is no effect, 100 is complete control
[21] = Test C, postemergence, 125 g ai/ha
[22] = Test C, postemergence, 1000 g ai/ha
[23] = Test C, postemergence, 31 g ai/ha

CON=C(c1cc(Cl)cc(F)c1Cl)c1c(O)c(C)nn(C)c1=O [Compound 271]
10: Corn plant response rating (0 to 100 scale) (corn (Zea mays); Postemergence, 31 g ai/ha)
90: Pigweed plant response rating (0 to 100 scale) [13, 21] | Ragweed plant response rating (0 to 100 scale) [14, 21]
40: Foxtail, Giant plant response rating (0 to 100 scale) [3, 19] | Barnyardgrass plant response rating (0 to 100 scale) ([8]; Postemergence, 31 g ai/ha) | Blackgrass plant response rating (0 to 100 scale) [9, 21]
70: Foxtail, Giant plant response rating (0 to 100 scale) ([10]; Postemergence, 31 g ai/ha) | Ragweed plant response rating (0 to 100 scale) ([14]; Postemergence, 31 g ai/ha) | Wheat plant response rating (0 to 100 scale) [15, 21]
20: Kochia plant response rating (0 to 100 scale) (kochia (Bassia scoparia) [4]; [19]) | Blackgrass plant response rating (0 to 100 scale) ([9]; Postemergence, 31 g ai/ha)
0: Plant response rating, Barnyardgrass (Flood) [16] | Plant response rating, Ducksalad (Flood) [17] | Plant response rating, Rice (Flood) (rice (Oryza sativa)) | Plant response rating, Sedge, Umbrella (Flood) [18]
80: Ryegrass, Italian plant response rating (0 to 100 scale) [1, 19] | Foxtail, Giant plant response rating (0 to 100 scale) [3, 20] | Ragweed plant response rating (0 to 100 scale) [6, 20] | Ryegrass, Italian plant response rating (0 to 100 scale) ([7]; Postemergence, 31 g ai/ha) | Barnyardgrass plant response rating (0 to 100 scale) [8, 21] | Foxtail, Giant plant response rating (0 to 100 scale) [10, 21] | Kochia plant response rating (0 to 100 scale) (kochia (Bassia scoparia) [12]; [21]) | Pigweed plant response rating (0 to 100 scale) ([13]; Postemergence, 31 g ai/ha)
100: Ryegrass, Italian plant response rating (0 to 100 scale) [1, 20] | Kochia plant response rating (0 to 100 scale) (kochia (Bassia scoparia) [4]; [20]) | Pigweed plant response rating (0 to 100 scale) [5, 19] | Pigweed plant response rating (0 to 100 scale) [5, 20] | Ryegrass, Italian plant response rating (0 to 100 scale) [7, 21] | Galium plant response rating (0 to 100 scale) ([11]; Postemergence, 31 g ai/ha) | Galium plant response rating (0 to 100 scale) [11, 21]
50: Barnyardgrass plant response rating (0 to 100 scale) [2, 20]
30: Barnyardgrass plant response rating (0 to 100 scale) [2, 19] | Ragweed plant response rating (0 to 100 scale) [6, 19] | Corn plant response rating (0 to 100 scale) (corn (Zea mays); [21]) | Wheat plant response rating (0 to 100 scale) ([15]; Postemergence, 31 g ai/ha)
60: Kochia plant response rating (0 to 100 scale) (kochia (Bassia scoparia) [12]; Postemergence, 31 g ai/ha)

C#CCO/N=C(/c1c(O)cnn(C)c1=O)c1cccc2ccccc12 [Compound 221]
0: Plant response rating, Barnyardgrass (Flood) [16] | Plant response rating, Ducksalad (Flood) [17] | Plant response rating, Rice (Flood) (rice (Oryza sativa)) | Plant response rating, Sedge, Umbrella (Flood) [18]
20: Corn plant response rating (0 to 100 scale) (corn (Zea mays); [22])
30: Barnyardgrass plant response rating (0 to 100 scale) ([2]; 1000 g ai/ha)
100: Ryegrass, Italian plant response rating (0 to 100 scale) ([1]; 1000 g ai/ha) | Foxtail, Giant plant response rating (0 to 100 scale) ([3]; 1000 g ai/ha) | Pigweed plant response rating (0 to 100 scale) ([5]; 1000 g ai/ha) | Ryegrass, Italian plant response rating (0 to 100 scale) [7, 22] | Galium plant response rating (0 to 100 scale) [11, 22]
60: Kochia plant response rating (0 to 100 scale) (kochia (Bassia scoparia) [4]; 1000 g ai/ha) | Foxtail, Giant plant response rating (0 to 100 scale) [10, 22] | Wheat plant response rating (0 to 100 scale) [15, 22]
80: Ragweed plant response rating (0 to 100 scale) ([6]; 1000 g ai/ha) | Ragweed plant response rating (0 to 100 scale) [14, 22]
90: Blackgrass plant response rating (0 to 100 scale) [9, 22] | Pigweed plant response rating (0 to 100 scale) [13, 22]
70: Barnyardgrass plant response rating (0 to 100 scale) [8, 22] | Kochia plant response rating (0 to 100 scale) (kochia (Bassia scoparia) [12]; [22])

CO/N=C(/c1ccc(Cl)c(Cl)c1)c1c(O)c(C)nn(C)c1=O [Compound 216]
30: Galium plant response rating (0 to 100 scale) ([11]; Postemergence, 31 g ai/ha)
40: Ragweed plant response rating (0 to 100 scale) [14, 21]
10: Ryegrass, Italian plant response rating (0 to 100 scale) [1, 20] | Barnyardgrass plant response rating (0 to 100 scale) [8, 21] | Ragweed plant response rating (0 to 100 scale) ([14]; Postemergence, 31 g ai/ha)
20: Kochia plant response rating (0 to 100 scale) (kochia (Bassia scoparia) [12]; Postemergence, 31 g ai/ha) | Pigweed plant response rating (0 to 100 scale) [13, 21]
50: Barnyardgrass plant response rating (0 to 100 scale) [2, 19] | Kochia plant response rating (0 to 100 scale) (kochia (Bassia scoparia) [12]; [21])
0: Ryegrass, Italian plant response rating (0 to 100 scale) [1, 19] | Barnyardgrass plant response rating (0 to 100 scale) [2, 20] | Foxtail, Giant plant response rating (0 to 100 scale) [3, 19] | Foxtail, Giant plant response rating (0 to 100 scale) [3, 20] | Kochia plant response rating (0 to 100 scale) (kochia (Bassia scoparia) [4]; [19]) | Kochia plant response rating (0 to 100 scale) (kochia (Bassia scoparia) [4]; [20]) | Pigweed plant response rating (0 to 100 scale) [5, 19] | Pigweed plant response rating (0 to 100 scale) [5, 20] | Ragweed plant response rating (0 to 100 scale) [6, 19] | Ragweed plant response rating (0 to 100 scale) [6, 20] | Ryegrass, Italian plant response rating (0 to 100 scale) ([7]; Postemergence, 31 g ai/ha) | Ryegrass, Italian plant response rating (0 to 100 scale) [7, 21] | Barnyardgrass plant response rating (0 to 100 scale) ([8]; Postemergence, 31 g ai/ha) | Blackgrass plant response rating (0 to 100 scale) ([9]; Postemergence, 31 g ai/ha) | Blackgrass plant response rating (0 to 100 scale) [9, 21] | Corn plant response rating (0 to 100 scale) (corn (Zea mays); Postemergence, 31 g ai/ha) | Corn plant response rating (0 to 100 scale) (corn (Zea mays); [21]) | Foxtail, Giant plant response rating (0 to 100 scale) ([10]; Postemergence, 31 g ai/ha) | Foxtail, Giant plant response rating (0 to 100 scale) [10, 21] | Pigweed plant response rating (0 to 100 scale) ([13]; Postemergence, 31 g ai/ha) | Wheat plant response rating (0 to 100 scale) ([15]; Postemergence, 31 g ai/ha) | Wheat plant response rating (0 to 100 scale) [15, 21] | Plant response rating, Barnyardgrass (Flood) [16] | Plant response rating, Ducksalad (Flood) [17] | Plant response rating, Rice (Flood) (rice (Oryza sativa)) | Plant response rating, Sedge, Umbrella (Flood) [18]
80: Galium plant response rating (0 to 100 scale) [11, 21]

CON=C(c1cc(Cl)cc(Cl)c1F)c1c(O)c(C)nn(C)c1=O [Compound 153]
90: Barnyardgrass plant response rating (0 to 100 scale) ([2]; 125 g ai/ha) | Foxtail, Giant plant response rating (0 to 100 scale) [3, 19] | Kochia plant response rating (0 to 100 scale) (kochia (Bassia scoparia) [4]; 125 g ai/ha) | Ragweed plant response rating (0 to 100 scale) [6, 19] | Ryegrass, Italian plant response rating (0 to 100 scale) ([7]; Postemergence, 31 g ai/ha) | Barnyardgrass plant response rating (0 to 100 scale) [8, 21] | Foxtail, Giant plant response rating (0 to 100 scale) [10, 23] | Kochia plant response rating (0 to 100 scale) (kochia (Bassia scoparia) [12]; [23]) | Ragweed plant response rating (0 to 100 scale) ([14]; Postemergence, 31 g ai/ha)
40: Wheat plant response rating (0 to 100 scale) ([15]; Postemergence, 31 g ai/ha) | Plant response rating, Rice (Flood) (rice (Oryza sativa))
70: Plant response rating, Sedge, Umbrella (Flood) [18]
55: Plant response rating, Ducksalad (Flood) [17]
50: Blackgrass plant response rating (0 to 100 scale) [9, 23] | Corn plant response rating (0 to 100 scale) (corn (Zea mays); [21])
60: Kochia plant response rating (0 to 100 scale) (kochia (Bassia scoparia) [4]; [19])
100: Ryegrass, Italian plant response rating (0 to 100 scale) ([1]; 125 g ai/ha) | Ryegrass, Italian plant response rating (0 to 100 scale) [1, 19] | Foxtail, Giant plant response rating (0 to 100 scale) ([3]; 125 g ai/ha) | Pigweed plant response rating (0 to 100 scale) ([5]; 125 g ai/ha) | Pigweed plant response rating (0 to 100 scale) [5, 19] | Ragweed plant response rating (0 to 100 scale) ([6]; 125 g ai/ha) | Ryegrass, Italian plant response rating (0 to 100 scale) [7, 21] | Foxtail, Giant plant response rating (0 to 100 scale) [10, 21] | Galium plant response rating (0 to 100 scale) [11, 23] | Galium plant response rating (0 to 100 scale) [11, 21] | Kochia plant response rating (0 to 100 scale) (kochia (Bassia scoparia) [12]; [21]) | Pigweed plant response rating (0 to 100 scale) ([13]; Postemergence, 31 g ai/ha) | Pigweed plant response rating (0 to 100 scale) [13, 21] | Ragweed plant response rating (0 to 100 scale) [14, 21]
20: Corn plant response rating (0 to 100 scale) (corn (Zea mays); [23])
80: Barnyardgrass plant response rating (0 to 100 scale) [2, 19] | Barnyardgrass plant response rating (0 to 100 scale) [8, 23] | Blackgrass plant response rating (0 to 100 scale) [9, 21] | Wheat plant response rating (0 to 100 scale) [15, 21] | Plant response rating, Barnyardgrass (Flood) [16]
